Experimental data reported in PubChem BioAssay AID248 (DTP/NCI, 2004).
“And” between values parts separate entries of the source, which are not always exact repeats. Equal entries are not always repeated. Inconclusive results and toxic doses are left out. No stated cut-off is given here; in the data, active means T/C of 150% or more; inactive means T/C below 125%.

Test system: L1210 leukemia ip in BDF1 mice, survival T/C
Assay: NCI In Vivo Anticancer Drug Screen. Data for tumor model L1210 Leukemia (intraperitoneal) in B6D2F1 (BDF1) mice
Conditions: endpoint: mean survival time, higher = longer survival
Outline: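 Tumor was transplanted into mice, which were then dosed with test compound or vehicle alone. Survival was recorded for each group, and the treated figure was expressed relative to the control figure.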

[1] = dose: 100.0 mg/kg/injection, schedule: Q01DX001 (ip), vehicle: Klucel (hydroxypropylcellulose) (HPC)
[2] = dose: 100.0 mg/kg/injection, schedule: Q01DX001 (ip), vehicle: saline
[3] = dose: 200.0 mg/kg/injection, schedule: Q01DX001 (ip), vehicle: saline
[4] = dose: 400.0 mg/kg/injection, schedule: Q01DX001 (ip), vehicle: saline
[5] = dose: 100.0 mg/kg/injection, schedule: Q01DX009 (ip), vehicle: saline
[6] = dose: 200.0 mg/kg/injection, schedule: Q01DX009 (ip), vehicle: saline
[7] = dose: 400.0 mg/kg/injection, schedule: Q01DX009 (ip), vehicle: saline
[8] = dose: 100.0 mg/kg/injection, schedule: Q04DX003 (ip), vehicle: saline with Tween-80
[9] = dose: 200.0 mg/kg/injection, schedule: Q04DX003 (ip), vehicle: saline with Tween-80
[10] = dose: 400.0 mg/kg/injection, schedule: Q04DX003 (ip), vehicle: saline with Tween-80

Measured: T/C

CCCCCCCOC(=O)COc1ccc(Cl)cc1Cl
inactive: dose: 100.0 mg/kg/injection, schedule: Q04DX002 (ip), vehicle: Klucel (hydroxypropylcellulose) (HPC) 90 % of control | dose: 200.0 mg/kg/injection, schedule: Q04DX002 (ip), vehicle: Klucel (hydroxypropylcellulose) (HPC) 87 % of control | dose: 400.0 mg/kg/injection, schedule: Q04DX002 (ip), vehicle: Klucel (hydroxypropylcellulose) (HPC) 97 % of control

CC1(C)N=C(N)N=C(N)N1c1cccc(OCCOc2cccc(N)c2)c1
inactive: dose: 5.0 mg/kg/injection, schedule: Q01DX001 (ip), vehicle: saline 91 % of control | dose: 10.0 mg/kg/injection, schedule: Q01DX001 (ip), vehicle: saline 92 % of control | dose: 20.0 mg/kg/injection, schedule: Q01DX001 (ip), vehicle: saline 94 % of control | dose: 40.0 mg/kg/injection, schedule: Q01DX001 (ip), vehicle: saline 89 % of control | [1] 106 % of control

Cc1[nH]c2ccccc2c(=O)c1-c1ccccc1
inactive: dose: 50.0 mg/kg/injection, schedule: Q01DX001 (ip), vehicle: saline 98 % of control | [2] 98 % of control | [3] 102 % of control | [4] 96 % of control

CC(N)C(=O)NC1C(CO)OC(n2cnc3c(N)ncnc32)C1O (centres undefined)
inactive: [2] 105 % of control | [3] 101 % of control | [4] 101 % of control

Cc1cc(Cc2cc(C)c(N)cc2N)c(N)cc1N
inactive: [2] 88 % of control | [3] 93 % of control | [4] 90 % of control

CCCCNC(c1ccccc1)=[N+]1C(C)CCCC1C (centres undefined)
inactive: dose: 3.0 mg/kg/injection, schedule: Q04DX002 (ip), vehicle: saline 108 % of control | dose: 6.0 mg/kg/injection, schedule: Q04DX002 (ip), vehicle: saline 94 % of control | dose: 12.0 mg/kg/injection, schedule: Q04DX002 (ip), vehicle: saline 87 % of control | dose: 12.5 mg/kg/injection, schedule: Q04DX002 (ip), vehicle: saline 107 % of control

Nc1ccc(/C=C/c2ccncc2)cc1
inactive: dose: 100.0 mg/kg/injection, schedule: Q01DX009 (ip), vehicle: Klucel (hydroxypropylcellulose) (HPC) 92 % of control | dose: 100.0 mg/kg/injection, schedule: Q04DX003 (ip), vehicle: Klucel (hydroxypropylcellulose) (HPC) 101 % of control | dose: 200.0 mg/kg/injection, schedule: Q01DX009 (ip), vehicle: Klucel (hydroxypropylcellulose) (HPC) 92 % of control | dose: 200.0 mg/kg/injection, schedule: Q04DX003 (ip), vehicle: Klucel (hydroxypropylcellulose) (HPC) 104 % of control | dose: 400.0 mg/kg/injection, schedule: Q01DX009 (ip), vehicle: Klucel (hydroxypropylcellulose) (HPC) 102 % of control | dose: 400.0 mg/kg/injection, schedule: Q04DX003 (ip), vehicle: Klucel (hydroxypropylcellulose) (HPC) 96 % of control

CCOC(=O)Cc1nnn(C)n1
inactive: dose: 100.0 mg/kg/injection, schedule: Q04DX003 (ip), vehicle: saline 93 % of control | dose: 200.0 mg/kg/injection, schedule: Q04DX003 (ip), vehicle: saline 90 % of control

CC(=O)NC(C)C(C)(C)O (centres undefined)
inactive: [5] 101 % of control | [6] 98 % of control | [7] 103 % of control

CC(=O)OCC1OC(N2C(=O)/C(=C/c3ccc4c(c3)OCO4)SC2=S)C(OC(C)=O)C(OC(C)=O)C1OC(C)=O (centres undefined)
inactive: dose: 12.5 mg/kg/injection, schedule: Q01DX005 (ip), vehicle: other 102 % of control | dose: 25.0 mg/kg/injection, schedule: Q01DX005 (ip), vehicle: other 100 % of control | dose: 50.0 mg/kg/injection, schedule: Q01DX005 (ip), vehicle: other 96 % of control | dose: 100.0 mg/kg/injection, schedule: Q01DX005 (ip), vehicle: other 94 % of control | dose: 200.0 mg/kg/injection, schedule: Q01DX005 (ip), vehicle: other 94 % of control

c1ccc(OCC2CO2)cc1 (centres undefined)
inactive: dose: 50.0 mg/kg/injection, schedule: Q01DX001 (ip), vehicle: carboxymethylcellulose (CMC) 100 % of control | dose: 100.0 mg/kg/injection, schedule: Q01DX001 (ip), vehicle: carboxymethylcellulose (CMC) 100 % of control | dose: 100.0 mg/kg/injection, schedule: Q01DX009 (ip), vehicle: saline with Tween-80 96 % of control | [8] 95 % of control | dose: 200.0 mg/kg/injection, schedule: Q01DX001 (ip), vehicle: carboxymethylcellulose (CMC) 105 % of control | dose: 200.0 mg/kg/injection, schedule: Q01DX009 (ip), vehicle: saline with Tween-80 93 % of control | [9] 97 % of control | dose: 400.0 mg/kg/injection, schedule: Q01DX001 (ip), vehicle: carboxymethylcellulose (CMC) 97 % of control | dose: 400.0 mg/kg/injection, schedule: Q01DX009 (ip), vehicle: saline with Tween-80 98 % of control | [10] 97 % of control

CCOP(=O)(OCC)C([O][Sb]([O]CC(C)Cl)[O]CC(C)Cl)c1ccc(OC)cc1 (centres undefined)
inactive: dose: 25.0 mg/kg/injection, schedule: Q04DX003 (ip), vehicle: alcohol 101 % of control | dose: 50.0 mg/kg/injection, schedule: Q04DX003 (ip), vehicle: alcohol 97 % of control | dose: 100.0 mg/kg/injection, schedule: Q04DX003 (ip), vehicle: alcohol 103 % of control and 113 % of control

CC(C)C(C)(C)NC(N)=O
inactive: [2] 102 % of control | [3] 104 % of control | [4] 104 % of control

CN(C)c1ccc2c(c1)N=[N+]([O-])c1cc(N(C)C)ccc1C2
inactive: [1] 97 % of control | dose: 200.0 mg/kg/injection, schedule: Q01DX001 (ip), vehicle: Klucel (hydroxypropylcellulose) (HPC) 97 % of control | dose: 400.0 mg/kg/injection, schedule: Q01DX001 (ip), vehicle: Klucel (hydroxypropylcellulose) (HPC) 89 % of control

NC(=O)Cn1cnc2cncnc21
inactive: [8] 103 % of control | [9] 111 % of control | [10] 99 % of control

CCCCC(=O)N/N=C/c1ccccc1OC
inactive: [2] 102 % of control | [3] 104 % of control

COc1ccc(/C=N/NC(N)=S)cc1
inactive: dose: 32.0 mg/kg/injection, schedule: Q01DX009 (ip), vehicle: saline 101 % of control and 92 % of control | dose: 32.0 mg/kg/injection, schedule: Q01DX010 (ip), vehicle: saline 97 % of control and 91 % of control | dose: 64.0 mg/kg/injection, schedule: Q01DX009 (ip), vehicle: saline 98 % of control and 100 % of control | dose: 64.0 mg/kg/injection, schedule: Q01DX010 (ip), vehicle: saline 96 % of control and 91 % of control | dose: 64.0 mg/kg/injection, schedule: Q01DX010 (iv), vehicle: saline 92 % of control | [5] 104 % of control | [8] 95 % of control | dose: 128.0 mg/kg/injection, schedule: Q01DX009 (ip), vehicle: saline 97 % of control and 102 % of control | dose: 128.0 mg/kg/injection, schedule: Q01DX010 (ip), vehicle: saline 94 % of control and 95 % of control | dose: 128.0 mg/kg/injection, schedule: Q01DX010 (iv), vehicle: saline 92 % of control | [3] 94 % of control | dose: 200.0 mg/kg/injection, schedule: Q01DX009 (ip), vehicle: acetone 95 % of control | [6] 100 % of control | [9] 95 % of control | dose: 256.0 mg/kg/injection, schedule: Q01DX009 (ip), vehicle: saline 101 % of control and 109 % of control | dose: 256.0 mg/kg/injection, schedule: Q01DX010 (ip), vehicle: saline 97 % of control and 90 % of control | dose: 256.0 mg/kg/injection, schedule: Q01DX010 (iv), vehicle: saline 102 % of control | [4] 100 % of control | dose: 400.0 mg/kg/injection, schedule: Q01DX009 (ip), vehicle: acetone 88 % of control | [7] 98 % of control | [10] 102 % of control | dose: 800.0 mg/kg/injection, schedule: Q01DX001 (ip), vehicle: saline 96 % of control
